Results taken from patent US20120258156A1, “SHAPED COMPOSITIONS FOR UNIFORM DELIVERY OF A FUNCTIONAL AGENT” (priority 2011, published 2012).

Settings: salt at 5% by weight in about 10 g tablets with 75% to 95% by weight calcium hypochlorite; FIGS. 6-8
From the text: The amount of calcium hypochlorite within each example ranged from 75% by weight to 95% by weight, while the various salts were included at 5% by weight, if at all.

SMILES: O=S(=O)([O-])[O-].[Mg+2] [magnesium sulfate]
- effect of additive on dissolution of the calcium hypochlorite: slow dissolution

SMILES: O=C([O-])[O-].[Ca+2] [calcium carbonate]
- effect of additive on dissolution of the calcium hypochlorite: increase the rate of dissolution

SMILES: [Mg+2].[OH-].[OH-] [magnesium hydroxide]
- effect of additive on dissolution of the calcium hypochlorite: slow dissolution

SMILES: O=S(=O)([O-])[O-].[Ca+2] [calcium sulfate]
- effect of additive on dissolution of the calcium hypochlorite: slow dissolution

SMILES: O=C([O-])[O-].[Na+].[Na+] [sodium carbonate]
- effect of additive on dissolution of the calcium hypochlorite: slow dissolution
